Assay results published in US20130189262A1, “IL-27 Antagonists for Treating Inflammatory Diseases” (Five Prime Therapeutics, Inc., priority 2011, published 2013).

How the values were obtained:
[1] = system: primary human bronchial smooth muscle cells; assay: CXCL10 expression with combinations of TNF-α, IL-27 and fluticasone (bDNA assay); type: cell-based; conditions: for CXCL10 expression, factor alone: single factor alone (5 ng/ml TNF-α; 1 μg/ml linked IL-27; IFN-γ), FIG. 4
Protocol: Primary human bronchial smooth muscle cells were cultured in the presence of 5 ng/ml TNF-αalone, 5 ng/ml TNF-α and 25 nM fluticasone; 1 μg/ml linked IL-27; 5 ng/ml TNF-α and 30 ng/ml IL-27; or 5 ng/ml TNF-α, 25 nM fluticasone, and 30 ng/ml IL-27. CXCL10 expression was determined by bDNA assay.

[2] = system: primary human bronchial smooth muscle cells; assay: Dose dependence of IL-27-induced steroid insensitivity (CXCL10/CD38 bDNA assay); type: cell-based; conditions: 5 ng/ml TNF-α, 25 nM fluticasone
Protocol: Primary human bronchial smooth muscle cells were cultured in the presence of 5 ng/ml TNF-α, 25 nM fluticasone, and increasing concentrations of linked IL-27 (Cat. No. 2526-IL; R&D Systems, Minneapolis, Minn.). CXCL10 and CD38 expression levels were determined by bDNA assay.

[3] = system: primary human bronchial smooth muscle cells; assay: CXCL10 expression with TNF-α, fluticasone and IL-12 family cytokine supernatants (bDNA assay); type: cell-based; conditions: 5 ng/ml TNF-α, 25 nM fluticasone, 293T supernatant; FIG. 5
Protocol: Primary human bronchial smooth muscle cells were cultured in the presence of 5 ng/ml TNF-α, 25 nM fluticasone, and a supernatant from 293T cells expressing IL-27 subunit EBI3 alone, IL-27 subunit p28 alone, IL-12 (comprised of p35 and p40), IL-35 (comprised of p35 and EBI3), IL-23 (comprised of p19 and p40), or IL-27 (comprised of p28 and EBI3). CXCL10 expression was determined by bDNA assay.

[4] = system: primary human bronchial smooth muscle cells; assay: Screen for factors inducing steroid resistance: CXCL10 and CD38 expression (bDNA) in bronchial smooth muscle cells with TNF-α and fluticasone; type: cell-based; conditions: 5 ng/ml TNF-α, 25 nM fluticasone
Protocol: In order to identify factors that induce a steroid-resistant state, an assay was set up as follows. Primary human bronchial smooth muscle cells were cultured in the presence of 5 ng/ml TNF-α and 25 nM fluticasone and a test substance. Steroid sensitivity was determined by detecting expression levels of CXCL10 (IP-10) and CD38 using a bDNA assay (QuantiGene® Plex 2.0; Panomics, Santa Clara, Calif.). Expression of each of those genes is suppressed by steroids, such as fluticasone. If a factor induces a steroid-insensitive state, expression of those genes should increase. Interferon family proteins were included as test substances as positive controls.
Using this assay, a library of over 4000 secreted and extracellular domain protein test substances were screened to identify test substances that induce a steroid-resistant state. The test substances were individually expressed in 293T cells and the cell supernatants used to test each substance in the assay.

[5] = system: primary human bronchial epithelial cells; assay: CXCL9 (MIG) / CXCL10 induction in air-liquid interface bronchial epithelial cells (ELISA); type: cell-based; conditions: normal donor; with and without 25 nM fluticasone; FIG. 9
[6] = system: primary bronchial smooth muscle cells (BSMCs); assay: WSX-1 expression in bronchial smooth muscle cells treated with factors (quantitative RT-PCR); type: cell-based, human; conditions: 5 ng/ml TNF-α; FIG. 7
Protocol: The effect of various factors on WSX-1 expression was then determined in primary bronchial smooth muscle cells (BSMCs). The BSMCs were treated with 5 ng/ml TNF-α, 10 ng/ml IFN-γ, 5 ng/ml TNF-α and 10 ng/ml IFN-γ, or 5 ng/ml TNF-α and 10 ng/ml IFN-γ and 25 nM fluticasone. WSX-1 expression was determined by quantitative RT-PCR and normalized to RPL19.

human IL-27 = molecular target: T1, human IL-27 (Homo sapiens, UniProt Q14213+Q8NEV9); assay: Inhibition of IL-27-induced CXCL10 expression in bronchial smooth muscle cells (ELISA); type: cell-based; conditions: 0.2 to 20 μg/mL preincubated with 5 ng/mL linked or native human IL-27 and 5 ng/mL TNF-α; FIG. 11
T1 construct: made in house
T1 sequence (Q8NEV9 29-243): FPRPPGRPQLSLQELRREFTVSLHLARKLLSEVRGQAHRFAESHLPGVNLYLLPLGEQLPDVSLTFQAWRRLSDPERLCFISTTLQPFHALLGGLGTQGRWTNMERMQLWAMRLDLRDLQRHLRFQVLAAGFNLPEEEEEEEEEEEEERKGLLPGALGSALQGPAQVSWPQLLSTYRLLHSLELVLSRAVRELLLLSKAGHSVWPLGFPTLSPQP
T1 sequence (Q14213 21-229): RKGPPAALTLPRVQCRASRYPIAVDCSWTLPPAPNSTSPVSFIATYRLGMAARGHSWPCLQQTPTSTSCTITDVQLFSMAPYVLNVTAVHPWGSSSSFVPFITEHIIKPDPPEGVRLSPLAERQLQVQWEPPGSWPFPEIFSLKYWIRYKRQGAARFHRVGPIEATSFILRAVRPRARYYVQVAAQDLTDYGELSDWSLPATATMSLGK
Protocol: Various concentrations of an IL-27 antagonist, WSX-1 ECD (0.2 to 20 μg/mL), were preincubated with 5 ng/mL of human IL-27 in the presence of 5 ng/mL of human TNF-α. Both linked and native human IL-27 were tested. Human linked IL-27 was obtained from R&D Systems and is produced with a linker between the p28 subunit and the EBI3 subunit. Native IL-27 was produced and purified in house by transfecting mammalian cells with separate vectors expressing each subunit and purifying the resulting p28/EBI3 (IL-27) heterodimer from the cell culture supernatant. Following the preincubation of WSX-1 ECD with IL-27 and TNF-α, the stimulus was added to primary human bronchial smooth muscle cells in culture. CXCL10 expression was determined by ELISA.
Various concentrations of a polyclonal antibody against human IL-27 (0.4 to 50 μg/mL; R&D Systems) were preincubated with 10 ng/mL of native human IL-27 in the presence of 5 ng/mL of human TNF-α. Following the preincubation of polyclonal antibody with IL-27 and TNF-α, the stimulus was added to primary human bronchial smooth muscle cells in culture. CXCL10 expression was determined by ELISA.

C[C@@H]1C[C@H]2[C@@H]3C[C@H](F)C4=CC(=O)C=C[C@]4(C)[C@@]3(F)[C@@H](O)C[C@]2(C)[C@@]1(O)C(=O)SCF [fluticasone, reference compound]
effect on CXCL10 expression induced by IL-27 and TNF-α ([1]; 5 ng/ml TNF-α, 25 nM fluticasone, 30 ng/ml IL-27): no effect

IFN-γ: interferon family protein, positive control in the screen
CXCL10 expression, factor alone [1]: did not induce CXCL10 expression

IL-27: heterodimeric cytokine comprising the subunits p28 and EBI3; linked IL-27 from R&D Systems (Cat. No. 2526-IL)
CXCL10 expression, in combination with TNF-α ([1]; 5 ng/ml TNF-α and 30 ng/ml IL-27): very high CXCL10 expression | CXCL10 expression, factor alone [1]: did not affect expression of CXCL10 | steroid insensitivity (CXCL10 expression in the presence of fluticasone) ([2]; increasing concentrations of linked IL-27): induced steroid-insensitivity in a dose-dependent manner | expression of CD38 ([2]; increasing concentrations of linked IL-27, data not shown): increased with increasing concentration | EC50 ([2]; linked IL-27, FIG. 3, read-out: EC50 for CXCL10 expression in the presence of fluticasone): 0.372 nM | synergistic increase of CXCL10 expression in the presence of TNF-α and fluticasone [3]: synergistically increased CXCL10 expression | fold-change in CXCL10 expression (screen) ([4]; 293T supernatant of test substance, FIG. 1): positive data points | effect on CD38 expression (two retests) ([4]; FIG. 2): positive data points | steroid sensitivity of IL-27 induction of CXCL10 expression [5]: steroid-insensitive at all concentrations of IL-27

TNF-α
CXCL10 expression, factor alone [1]: increased expression of CXCL10 | WSX-1 expression normalized to RPL19 [6]: up-regulated

B1: WSX-1 ECD: IL-27 antagonist; WSX-1 polypeptide that lacks the intracellular and transmembrane domains (protein, UniProt Q6UWB1 33-516, looked up)
extracellular domain: QGSAGPLQCYGVGPLGDLNCSWEPLGDLGAPSELHLQSQKYRSNKTQTVAVAAGRSWVAIPREQLTMSDKLLVWGTKAGQPLWPPVFVNLETQMKPNAPRLGPDVDFSEDDPLEATVHWAPPTWPSHKVLICQFHYRRCQEAAWTLLEPELKTIPLTPVEIQDLELATGYKVYGRCRMEKEEDLWGEWSPILSFQTPPSAPKDVWVSGNLCGTPGGEEPLLLWKAPGPCVQVSYKVWFWVGGRELSPEGITCCCSLIPSGAEWARVSAVNATSWEPLTNLSLVCLDSASAPRSVAVSSIAGSTELLVTWQPGPGEPLEHVVDWARDGDPLEKLNWVRLPPGNLSALLPGNFTVGVPYRITVTAVSASGLASASSVWGFREELAPLVGPTLWRLQDAPPGTPAIAWGEVPRHQLRGHLTHYTLCAQSGTSPSVCMNVSGNTQSVTLPDLPWGPCELWVTASTIAGQGPPGPILRLHLPDNTLRWK
modifications: extracellular domain
notes: IL-27 antagonist; WSX-1 polypeptide that lacks the intracellular and transmembrane domains
inhibition of IL-27-induced expression of CXCL10 (human IL-27): inhibited IL-27-induced expression of CXCL10
